Experimental data from ChEMBL document CHEMBL4033623, “Synthesis of xanthone derivatives and studies on the inhibition against cancer cells growth and synergistic combinations of them” (Eur J Med Chem, 2017).
The source made the active and inactive calls. The rule behind the calls is not given here.

Key:
[1] = system: MDA-MB-231; experiment: Synergistic decrease in MDM2 level in human MDA-MB-231 cells at 0.1 to 0.5 uM after 48 hrs in presence of DMXAA by Western blot analysis; assay type: functional, cell-based
[2] = system: MDA-MB-231; experiment: Induction of apoptosis in human MDA-MB-231 cells after 48 hrs in presence of DMXAA by Annexin-V/FITC/PI staining based flow cytometry; assay type: functional, cell-based
[3] = system: MDA-MB-231; experiment: Synergistic induction of apoptosis in human MDA-MB-231 cells assessed as decrease in caspase-3 level at 0.1 to 0.5 uM after 48 hrs in presence of DMXAA by Western blot analysis; assay type: functional, cell-based
[4] = system: MDA-MB-231; experiment: Synergistic induction of apoptosis in human MDA-MB-231 cells assessed as early apoptotic cells at 0.2 uM after 48 hrs in presence of DMXAA by Annexin-V/FITC/PI staining based flow cytometry (reference value: 0.05 %); assay type: functional
[5] = system: MDA-MB-231; experiment: Synergistic induction of apoptosis in human MDA-MB-231 cells assessed as necrotic cells at 0.4 uM after 48 hrs in presence of DMXAA by Annexin-V/FITC/PI staining based flow cytometry (reference value: 0.00 %); assay type: functional
[6] = system: MDA-MB-231; experiment: Induction of apoptosis in human MDA-MB-231 cells assessed as early apoptotic cells at 0.8 uM after 48 hrs by Annexin-V/FITC/PI staining based flow cytometry (reference value: […] %); assay type: functional
[7] = system: MDA-MB-231; experiment: Synergistic induction of apoptosis in human MDA-MB-231 cells assessed as late apoptotic cells at 0.2 uM after 48 hrs in presence of DMXAA by Annexin-V/FITC/PI staining based flow cytometry (reference value: 0.00 %); assay type: functional
[8] = system: K562; experiment: Antiproliferative activity against human K562 cells after 48 hrs by CCK8 assay; assay type: functional, cell-based; settings: K562, 48 h
[9] = system: MDA-MB-231; experiment: Decrease in caspase-3 level in human MDA-MB-231 cells at 0.2 to 0.8 uM after 48 hrs by Western blot analysis; assay type: functional, cell-based
[10] = system: MDA-MB-231; experiment: Synergistic induction of apoptosis in human MDA-MB-231 cells assessed as early apoptotic cells at 0.4 uM after 48 hrs in presence of DMXAA by Annexin-V/FITC/PI staining based flow cytometry (reference value: 0.05 %); assay type: functional
[11] = system: MDA-MB-231; experiment: Induction of apoptosis in human MDA-MB-231 cells assessed as viable cells at 0.2 uM after 48 hrs by Annexin-V/FITC/PI staining based flow cytometry (reference value: 96.51 %); assay type: functional; settings: MDA-MB-231, 48 h, read-out: Activity
[12] = system: HepG2; experiment: Synergistic antiproliferative activity against human HepG2 cells at compound to DMXAA mol ratio of 1:1 after 48 hrs by CCK8 assay; assay type: functional, cell-based; settings: HepG2, 48 h
[13] = system: MCF7; experiment: Synergistic antiproliferative activity against human MCF7 cells at compound to DMXAA mol ratio of 1:1 after 48 hrs by CCK8 assay; assay type: functional, cell-based; settings: MCF7, 48 h
[14] = system: MDA-MB-231; experiment: Induction of apoptosis in human MDA-MB-231 cells assessed as late apoptotic cells at 0.8 uM after 48 hrs by Annexin-V/FITC/PI staining based flow cytometry (reference value: 1.50 %); assay type: functional
[15] = system: MDA-MB-231; experiment: Induction of apoptosis in human MDA-MB-231 cells assessed as late apoptotic cells at 0.2 uM after 48 hrs by Annexin-V/FITC/PI staining based flow cytometry (reference value: 1.50 %); assay type: functional
[16] = system: MDA-MB-231; experiment: Induction of apoptosis in human MDA-MB-231 cells assessed as increase in cleaved caspase-3 expression at 0.2 to 0.8 uM after 48 hrs by Western blot analysis; assay type: functional, cell-based
[17] = system: MDA-MB-231; experiment: Synergistic induction of apoptosis in human MDA-MB-231 cells assessed as early apoptotic cells at 0.8 uM after 48 hrs in presence of DMXAA by Annexin-V/FITC/PI staining based flow cytometry (reference value: 0.05 %); assay type: functional
[18] = system: MDA-MB-231; experiment: Synergistic induction of apoptosis in human MDA-MB-231 cells assessed as viable cells at 0.8 uM after 48 hrs in presence of DMXAA by Annexin-V/FITC/PI staining based flow cytometry (reference value: 99.95 %); assay type: functional; settings: MDA-MB-231, 48 h, read-out: Activity
[19] = system: MDA-MB-231; experiment: Synergistic induction of apoptosis in human MDA-MB-231 cells assessed as necrotic cells at 0.8 uM after 48 hrs in presence of DMXAA by Annexin-V/FITC/PI staining based flow cytometry (reference value: 0.00 %); assay type: functional
[20] = system: HepG2; experiment: Antiproliferative activity against human HepG2 cells after 48 hrs by CCK8 assay; assay type: functional, cell-based; settings: HepG2, 48 h
[21] = system: MDA-MB-231; experiment: Induction of apoptosis in human MDA-MB-231 cells assessed as viable cells at 0.8 uM after 48 hrs by Annexin-V/FITC/PI staining based flow cytometry (reference value: 96.51 %); assay type: functional; settings: MDA-MB-231, 48 h, read-out: Activity
[22] = system: MDA-MB-231; experiment: Synergistic induction of apoptosis in human MDA-MB-231 cells assessed as increase in cleaved caspase-3 level at 0.1 to 0.5 uM after 48 hrs in presence of DMXAA by Western blot analysis; assay type: functional, cell-based
[23] = system: MDA-MB-231; experiment: Induction of apoptosis in human MDA-MB-231 cells assessed as increase in cleaved PARP expression at 0.2 to 0.8 uM after 48 hrs by Western blot analysis; assay type: functional, cell-based
[24] = system: L02; experiment: Cytotoxicity against human HL-7702 cells after 48 hrs by CCK8 assay; assay type: cell-based; settings: L02, 48 h
[25] = system: MDA-MB-231; experiment: Induction of apoptosis in human MDA-MB-231 cells assessed as necrotic cells at 0.2 uM after 48 hrs by Annexin-V/FITC/PI staining based flow cytometry (reference value: 1.55 %); assay type: functional
[26] = system: MDA-MB-231; experiment: Increase in p53 level in human MDA-MB-231 cells at 0.2 to 0.8 uM after 48 hrs by Western blot analysis; assay type: functional, cell-based
[27] = system: MDA-MB-231; experiment: Decrease in MDM2 level in human MDA-MB-231 cells at 0.2 to 0.8 uM after 48 hrs by Western blot analysis; assay type: functional, cell-based
[28] = system: MDA-MB-231; experiment: Synergistic induction of apoptosis in human MDA-MB-231 cells assessed as decrease in caspase-9 level at 0.1 to 0.5 uM after 48 hrs in presence of DMXAA by Western blot analysis; assay type: functional, cell-based
[29] = system: MDA-MB-231; experiment: Induction of apoptosis in human MDA-MB-231 cells assessed as early apoptotic cells at 0.4 uM after 48 hrs by Annexin-V/FITC/PI staining based flow cytometry (reference value: 0.44 %); assay type: functional
[30] = system: MDA-MB-231; experiment: Induction of apoptosis in human MDA-MB-231 cells assessed as viable cells at 0.4 uM after 48 hrs by Annexin-V/FITC/PI staining based flow cytometry (reference value: 96.51 %); assay type: functional; settings: MDA-MB-231, 48 h, read-out: Activity
[31] = system: COLO 320; experiment: Synergistic antiproliferative activity against human COLO320 cells at compound to DMXAA mol ratio of 1:1 after 48 hrs by CCK8 assay; assay type: functional, cell-based; settings: COLO 320, 48 h
[32] = system: MDA-MB-231; experiment: Synergistic induction of apoptosis in human MDA-MB-231 cells assessed as late apoptotic cells at 0.4 uM after 48 hrs in presence of DMXAA by Annexin-V/FITC/PI staining based flow cytometry (reference value: 0.00 %); assay type: functional
[33] = system: MDA-MB-231; experiment: Synergistic antiproliferative activity against human MDA-MB-231 cells at compound to DMXAA mol ratio of 1:1 after 48 hrs by CCK8 assay relative to compound alone; assay type: functional

## O=c1c2cc(Br)ccc2oc2cc(O)cc(O)c12
[1]
  Activity: Active
[2]
  Activity: Dose-dependent effect
[3]
  Activity: Active
[4]
  Activity: 2.79%
[5]
  Activity: 22.27%
[6]
  Activity: 2.21%
[7]
  Activity: 10.2%
[8]
  IC50: 13.4 µM
[9]
  Activity: Active
[10]
  Activity: 4.7%
[11]
  viability at 0.2 µM: 79.2%
[12]
  IC50: 7.21 µM
[13]
  IC50: 2.41 µM
[14]
  Activity: 13.71%
[15]
  Activity: 5.35%
[16]
  Activity: Active
[17]
  Activity: 6.81%
[18]
  viability at 0.8 µM: 41.1%
[19]
  Activity: 17.47%
[20]
  IC50: 9.2 µM
[21]
  viability at 0.8 µM: 39.1%
[22]
  Activity: Active
[23]
  Activity: Active
[24]
  IC50: 565 µM
[25]
  Activity: 14.44%
[26]
  Activity: Active
[27]
  Activity: Active
[28]
  Activity: Active
[29]
  Activity: 1.74%
[30]
  viability at 0.4 µM: 47.9%
[31]
  IC50: 5.12 µM
[32]
  Activity: 26.7%
[33]
  fold change (FC): 10
